The values below come from article PMC8579695, “The Stringent Response Inhibits 70S Ribosome Formation in Staphylococcus aureus by Impeding GTPase-Ribosome Interactions” (mBio, 2021).

One experiment deals with Era (Staphylococcus aureus, UniProt Q2FGF6). Put plainly: DRaCALA binding of 32P-labeled nucleotides to 6×His-tagged Era. Conditions: for Bmax, Era: mean ± SEM, Bmax values indicate the fraction bound. The procedure: (§1) The RA-GTPases RsgA, Era, RbgA, and HflX can bind to the guanosine nucleotides GTP, GDP, ppGpp, and pppGpp. Our previous work observed higher binding affinities for ppGpp over GTP, pointing toward a difference in binding between 5′ di- or triphosphate nucleotides ([27]). […] Furthermore, these previous experiments were performed using recombinant proteins fused to large MBP tags, which could impact binding affinity determination. To examine the nucleotide binding affinities of these RA-GTPases for GDP in comparison to ppGpp, pppGpp, and GTP, and in the absence of a large tag, we used a differential radial capillary action of ligand assay (DRaCALA) with recombinant RsgA, RbgA, Era, and HflX fused to a smaller 6× His tag (Fig. 1B; see also Fig. S2A to C in the supplemental material) ([36]). In each case, the affinities of 5′ diphosphate-containing GDP and ppGpp were similar in the low μM range and were 2- to 6-fold higher than the affinities of either GTP or pppGpp (Table 1).
(§2) Supplementary file : FIG S2 Examination of the binding of GDP, ppGpp, GTP, and pppGpp to RA-GTPases by DRaCALA. (A to C) Determination of binding affinities and Kd values for ^32P-labeled nucleotides to purified recombinant 6×His-tagged RsgA (A), Era (B), and HflX (C). Kd values were determined from the binding curves as previously described ([36]). (D to F) DRaCALA binding assay of recombinant RsgA (D), Era (E), and HflX (F) binding to ^32P-labeled GTP, ppGpp, and pppGpp in the presence or absence of 100 μM cold competitors (GTP, GDP, ppGpp, pppGpp, and ATP). All experiments were carried out in triplicate, with error bars representing standard deviations. Download FIG S2, TIF file, 0.9 MB.
(§3) The synthesis of (p)ppGpp and differential radial capillary action of ligand assay (DRaCALA) binding and competition assays were performed as described previously ([27]), using recombinant, 6×His-tagged protein at the concentrations specified in the figure legends.

The next experiment has as its target RbgA (Staphylococcus aureus, UniProt A0A0H2XK72). Put plainly: DRaCALA binding of 32P-labeled nucleotides to 6×His-tagged RbgA. Conditions: for Bmax, RbgA: mean ± SEM, Bmax values indicate the fraction bound.
Excerpt: FIG 1 Nucleotide binding characteristics of RA-GTPases. (A) Schematic representation of the domain structure of Era, RsgA, RbgA, and HflX from S. aureus. The conserved GTPase domain (G domain) is colored in green, and accessory domains are shown. (B) Determination of binding affinities and Kd values for ^32P-labeled GTP, GDP, ppGpp, and pppGpp with purified recombinant 6×His-tagged RbgA using DRaCALA, as previously described ([36]). Each point is the mean average of at least three technical replicates, and error bars indicate standard deviations. (C) Binding assay (DRaCALA) of recombinant RbgA binding to ^32P-labeled GTP, ppGpp, and pppGpp in the presence of an excess of cold competitor (GTP, GDP, ppGpp, pppGpp, or ATP). All experiments were carried out in triplicate, with error bars representing standard deviations.
as §1, §3

The target in the next experiment is RsgA (Staphylococcus aureus, UniProt P67682). The experiment can be described thus: DRaCALA binding of 32P-labeled nucleotides to 6×His-tagged RsgA. Conditions: for Bmax, RsgA: mean ± SEM, Bmax values indicate the fraction bound. The procedure:
as §1, §2, §3

The target in another experiment is HflX (Staphylococcus aureus, UniProt Q2FYY9). The experiment can be described thus: DRaCALA binding of 32P-labeled nucleotides to 6×His-tagged HflX. The note with it: for Bmax, HflX: mean ± SEM, Bmax values indicate the fraction bound. The procedure: as §1, §2, §3
Experiment [1] has as its target Era association to the 30S ribosomal subunit (Staphylococcus aureus, UniProt Q2FGF6). Put plainly: In vitro ribosome association assay (sucrose gradient, α-His Western immunoblot), Era. The experiment is classed as binding. The note with it: 40 μM nucleotide; compared to apo, GTP, or GMPPNP-bound states. From the text:
(§4) It is well characterized that rRNA transcription decreases during the stringent response ([39]). In addition, the GTPase activity of ribosome assembly cofactors is inhibited by (p)ppGpp, both of which contribute to a reduction in mature ribosomes within the cell ([27]). To examine mechanistically how (p)ppGpp-GTPase interactions affect the ability of RA-GTPases to associate with ribosomal subunits, we examined the association of each GTPase to either the 30S or 50S ribosomal subunit in the presence of GDP, GTP, ppGpp, and pppGpp, as well as GMPPNP, a nonhydrolyzable analogue of GTP. The production and isolation of immature subunits, which can comprise several different immature states, introduces a large degree of heterogeneity, and so here we, and others, use homogenous mature particles as a system to examine the binding event, rather than the role of GTPase activity in downstream maturation ([11], [12], [29], [40], [41]). His-tagged GTPases were preincubated with highly pure, salt-washed 70S S. aureus ribosomes in a low-magnesium buffer to encourage ribosomal subunit dissociation, and the amount of each GTPase associated with each of the subunits was quantified by Western immunoblotting with anti-His antibodies after sucrose gradient separation. […]
(§5) FIG 2 (p)ppGpp and GDP binding reduces RA-GTPase association to the ribosome. […] After subunit separation and precipitation, bound proteins were detected in the 30S fraction using HRP-conjugated α-His antibodies. […] Bound proteins were detected in the 50S fraction using HRP-conjugated α-His antibodies. […]
(§6) A 500 nM concentration of recombinant 6×His-tagged RA-GTPase was incubated at room temperature for 5 min with 200 nM S. aureus 70S ribosomes in dissociation buffer (20 mM Tris [pH 7.5], 120 mM NH4Cl, 1.5 mM MgCl2, 2 mM β-mercaptoethanol) in the apo form and in the presence of 40 μM GTP, GMPPNP, GDP, ppGpp, or pppGpp. […] Gradients were fractionated by upward displacement of 250-μl aliquots, which were analyzed for RNA content at an absorbance of 260 nm. […]
In general terms: Immunoblotting shows a protein as a band on a membrane.

The subject of experiment [2] is HflX association to the 30S and 50S ribosomal subunits. Put plainly: In vitro ribosome association assay (sucrose gradient, α-His Western immunoblot), HflX. The experiment is classed as binding, Staphylococcus aureus. Conditions: 40 μM nucleotide; compared to apo, GTP, or GMPPNP-bound states.
Excerpt: as §4, §5, §6

In experiment [3] the test system is RA-GTPases RsgA, RbgA, Era, and HflX. Put plainly: DRaCALA binding and competition assays across the four RA-GTPases. Further details: species or system Staphylococcus aureus. The note with it: 100 μM cold competitor. From the text:
FIG 1 Nucleotide binding characteristics of RA-GTPases. (A) Schematic representation of the domain structure of Era, RsgA, RbgA, and HflX from S. aureus. The conserved GTPase domain (G domain) is colored in green, and accessory domains are shown. (B) Determination of binding affinities and Kd values for ^32P-labeled GTP, GDP, ppGpp, and pppGpp with purified recombinant 6×His-tagged RbgA using DRaCALA, as previously described ([36]). Each point is the mean average of at least three technical replicates, and error bars indicate standard deviations. (C) Binding assay (DRaCALA) of recombinant RbgA binding to ^32P-labeled GTP, ppGpp, and pppGpp in the presence of an excess of cold competitor (GTP, GDP, ppGpp, pppGpp, or ATP). All experiments were carried out in triplicate, with error bars representing standard deviations. […]
Supplementary file : FIG S2 Examination of the binding of GDP, ppGpp, GTP, and pppGpp to RA-GTPases by DRaCALA. […] Kd values were determined from the binding curves as previously described ([36]). […]
Structural data places (p)ppGpp within the GTP-binding site of the RA-GTPase RbgA ([6]), indicating a competitive mode of inhibition. […] Based on our measured affinities (Table 1), we speculate that both GDP and ppGpp will outcompete other nucleotides for occupancy of the binding site. […]

The subject of experiment [4] is HflX binding to 50S ribosomes. The experiment can be described thus: Stopped-flow fluorescence kinetics of HflX-Atto488 association to 50S subunits. Details: species or system Staphylococcus aureus. The procedure: FIG 3 Stopped-flow kinetic parameters of RA-GTPase association to the ribosomal subunits. (A) Schematic representation of the experimental setup for stopped-flow analysis. Nucleotides (brown circles), 50S subunits (orange oval), and Atto488-labeled RA-GTPases (purple hexagon) are indicated. Arrows indicate the direction of syringe movement. Atto-488 was excited using a 470-nm LED, and fluorescence was detected through a 515-nm long-pass filter. (B and C) Fluorescent change upon mixing 0.2 μM RbgA-Atto488 (B) or HflX-Atto488 (C) with 0.2 μM 50S ribosomal subunits in the presence of 100 μM GTP, ppGpp, and pppGpp or in the apo state using the stopped-flow fluorescence apparatus. Fluorescently labeled protein was also mixed with buffer lacking 50S subunits as a mixing control. Fluorescence of the reaction was tracked using exponential sampling for 10 s, and each curve represents the mean average of at least five technical replicates. (D) kapp1 dependence on 50S concentration for HflX complexed with GTP (green), ppGpp (pink), and pppGpp (black). (E) Same as for panel D for the kapp2 dependence. (F and G) Sum and product analyses of apparent rates during HflX association to the 50S subunit. HflX-Atto488 (0.05 μM) was mixed with increasing titrations of 50S ribosomal subunits over the fluorescently labeled protein in the presence of 20 μM GTP or ppGpp. The resultant traces (see Fig. S4) were analyzed by nonlinear regression using two exponential terms. The sum (F) and product (G) of apparent rates (kapp1 [D] and kapp2 [E]) were plotted as a function of the total concentration of the 50S subunits and HflX protein to determine the microscopic constants k1, k-1, k2, and k-2 (Table 2) and the resulting dissociation constant (Kd) (see Materials and Methods). Error bars represent the standard deviations of the apparent rates of four or more individual traces (D and E) or the standard errors of the two-step analysis (F and G).
Next, we used a constant concentration of protein in the presence of 200-fold excess of each nucleotide and titrated it with increasing concentrations of ribosomal subunits (see Fig. S4). […]
For initial controls, 0.2 μM Atto-488-labeled proteins were rapidly mixed with 0.2 μM E. coli 50S ribosomal subunits (purified as described elsewhere) in TAKM7 buffer (25 mM Tris-HCl [pH 7.4], 70 mM ammonium acetate, 30 mM KCl, 7 mM MgCl2) using an SX20 stopped-flow apparatus (Applied Photophysics) in the presence or absence of GTP, ppGpp, and pppGpp. […] Atto-488 was excited using a 470-nm LED and fluorescence was detected through a 515-nm long-pass filter. Reactions were monitored for 10 s, with 1,000 total data points per reaction. Each condition was subject to at least five technical repeats, with curves representing the mean average fluorescence of the technical repeats. […]

Chain of Era (Q2FGF6 whole entry, the tested form may be a part): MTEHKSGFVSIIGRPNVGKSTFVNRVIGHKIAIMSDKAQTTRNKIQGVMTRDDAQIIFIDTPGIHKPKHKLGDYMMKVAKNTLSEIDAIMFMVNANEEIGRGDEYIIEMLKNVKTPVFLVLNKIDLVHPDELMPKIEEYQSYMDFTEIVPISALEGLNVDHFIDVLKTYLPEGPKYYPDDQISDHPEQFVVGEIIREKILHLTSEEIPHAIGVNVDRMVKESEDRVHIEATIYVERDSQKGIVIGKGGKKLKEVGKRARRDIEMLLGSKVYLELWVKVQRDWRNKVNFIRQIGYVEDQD
Chain of HflX (Q2FYY9 entry or part of it): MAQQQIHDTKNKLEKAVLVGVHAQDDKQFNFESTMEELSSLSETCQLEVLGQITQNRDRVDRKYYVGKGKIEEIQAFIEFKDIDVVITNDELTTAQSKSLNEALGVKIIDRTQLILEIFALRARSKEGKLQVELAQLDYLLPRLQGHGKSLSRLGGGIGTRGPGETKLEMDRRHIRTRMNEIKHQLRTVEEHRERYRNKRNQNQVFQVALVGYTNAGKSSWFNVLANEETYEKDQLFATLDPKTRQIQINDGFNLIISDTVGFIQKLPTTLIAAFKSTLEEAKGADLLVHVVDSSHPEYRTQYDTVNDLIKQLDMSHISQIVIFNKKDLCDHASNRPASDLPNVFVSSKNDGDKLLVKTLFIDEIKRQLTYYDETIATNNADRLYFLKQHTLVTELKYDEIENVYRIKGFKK
Chain of RbgA (A0A0H2XK72 entry or part of it): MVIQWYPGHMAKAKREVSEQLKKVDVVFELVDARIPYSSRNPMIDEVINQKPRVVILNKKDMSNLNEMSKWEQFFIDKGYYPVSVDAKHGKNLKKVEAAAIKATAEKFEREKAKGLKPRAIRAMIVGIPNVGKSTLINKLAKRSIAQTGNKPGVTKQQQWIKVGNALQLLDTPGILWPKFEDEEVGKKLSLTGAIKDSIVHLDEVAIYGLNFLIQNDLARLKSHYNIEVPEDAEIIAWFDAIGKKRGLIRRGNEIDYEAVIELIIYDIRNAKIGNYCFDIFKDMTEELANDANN
Chain of RsgA (P67682 whole entry): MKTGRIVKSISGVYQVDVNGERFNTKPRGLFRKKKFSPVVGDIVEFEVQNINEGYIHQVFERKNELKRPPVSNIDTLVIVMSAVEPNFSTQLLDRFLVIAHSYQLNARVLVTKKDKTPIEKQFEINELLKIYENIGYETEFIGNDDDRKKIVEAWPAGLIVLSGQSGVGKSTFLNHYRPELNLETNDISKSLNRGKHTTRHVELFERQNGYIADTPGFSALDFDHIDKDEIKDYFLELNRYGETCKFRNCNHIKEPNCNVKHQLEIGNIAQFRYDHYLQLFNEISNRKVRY
Chain of Era association to the 30S ribosomal subunit (Q2FGF6 whole entry): as the sequence (Q2FGF6 whole entry, the tested form may be a part) above

For the compound `Nc1nc2c(ncn2[C@@H]2O[C@H](COP(=O)(O)OP(=O)(O)O)[C@@H](O)[C@H]2O)c(=O)[nH]1` [GDP], at Era, the Kd came out at 4.9 ± 0.7 µM and the “Bmax, Era” value is given as 0.5 ± 0.0. On RbgA, binding was characterised by a dissociation constant (Kd) of 6.1 ± 1.1 µM and the “Bmax, RbgA” value is listed as 0.5 ± 0.0. For the same compound, at RsgA, the Kd turned out to be 1.8 ± 0.2 µM and the “Bmax, RsgA” value is reported as 0.9 ± 0.0. On HflX, the Kd stood at 4.9 ± 0.7 µM and the “Bmax, HflX” value is on record as 0.7 ± 0.0. In experiment [1], the “reduction in ribosome binding of Era” value is listed as 2 fold. Further, the “reduction in ribosome binding of HflX” value in experiment [2] is on record as 2 fold. In experiment [3], the “competition of cold unlabeled nucleotide with 32P-labeled GTP, ppGpp, pppGpp” value is given as “competing more effectively”.
Take `Nc1nc2c(ncn2[C@@H]2O[C@H](COP(=O)(O)OP(=O)(O)OP(=O)(O)O)[C@@H](O)[C@H]2O)c(=O)[nH]1` [GTP]: on Era, the Kd is 11.5 ± 1.6 µM and the “Bmax, Era” value was found to be 0.3 ± 0.0. For the same compound, on RbgA, the Kd was 18.5 ± 5.4 µM and the “Bmax, RbgA” value is reported as 0.4 ± 0.0. Besides, on RsgA, the equilibrium dissociation constant (Kd) was found to be 3.6 ± 0.4 µM and the “Bmax, RsgA” value came out at 0.8 ± 0.0. The “Bmax, HflX” value at HflX stood at 0.7 ± 0.3. Moreover, the “kapp2 of HflX association to 50S” value in experiment [4] (GTP: hyperbolic, plateau, ppGpp: independent of 50S concentration) was around 2 s⁻¹. In experiment [4] (dependence on 50S concentration), the “linear increase in kapp1 of HflX, GTP relative to ppGpp or pppGpp” value was 2 fold.

Usually Kd stands for the free concentration of one partner at which half of the binding sites on the other are occupied at equilibrium, for simple one-to-one binding. A high value points to weaker binding.
